From patent US12377152B2, “Compounds for degrading alpha-synuclein aggregates and uses thereof” (APRINOIA THERAPEUTICS LIMITED, priority 2019, dated 2025)

Columns and labels:
[1] = target: T1, α-synuclein (Homo sapiens (Human), UniProt P37840); assay: In vitro fluorometric α-synuclein binding assay; settings: 2 μM α-synuclein, 37° C., 1 hour, fluorescence
Procedure: (§1) (A) Expression and purification of recombinant wild-type human α-synuclein: 0.5 mM IPTG was used to induce production of wild type human α-synuclein by bacteria transformed with a full-length α-synuclein expression plasmid. After shaking at 16° C. for 20 hours, cell pellet was resuspended in lysis buffer (10 mM Tris, 1 mM EGTA, 0.75 mM NaCl, 1 mM PMSF, pH 7.5) and lysed by sonication followed by centrifugation (6000 g, 30 min, 4° C.). The supernatant was then boiled at 95° C. for 15 min with manual agitation by every 5 minutes, followed by centrifugation (6000 g, 30 min, 4° C.). Supernatant was dialyzed with (10 mM Tris, 1 mM EGTA, 50 mM NaCl, pH 7.5) buffer and concentrated with concentrator. The collected sample was loaded onto a Superdex200 column, the flow-through fraction was then loaded onto a Q-HP column. Collected fractions with α-synuclein eluates were pooled, concentrated and stored at −80° C.
(§2) (B) Preparation of aggregated α-synuclein: 5 mg/mL of α-synuclein in PBS buffer (pH 7.4) was incubated in tube with at 37° C. with shaking (700 rpm) for 5-10 days.
(C) In vitro fluorometric α-synuclein binding assays: 2 μM α-synuclein was incubated with serially diluted compound (three-fold serial dilutions, from 10 to 0.001 μM) in a 96-well plate at 37° C. for 1 hour. Fluorescence intensity was read by microplate spectrometer. Compound Kd values were calculated using the following equation: Y=Bmax*X/(Kd+X), where X is the concentration of compound; Y is the fluorescence signal of (compound+α-synuclein)−(compound+DMSO); and Bmax is the maximum signal.

[2] = target: T1, α-synuclein; assay: PBB5 competition assay; format: binding; settings: 2 μM α-synuclein, 0.26 μM PBB5, 37° C., 1 hour
Procedure: as §1, §2
(D) PBB5 competition assay: 2 μM of α-synuclein was incubated with 0.26 μM 2-(4-(2-(methylamino)pyridine-5-yl)-1,3-butadiene-1-yl)benzothiazole-6-ol (PBB5) and serially diluted compound (three-fold serial dilution, from 10 to 0.001 μM) in a 96-well plate at 37° C. for 1 hour. Fluorescence intensity (excitation/emission=530/690 nm) of PBB5 was read by microplate spectrometer. Percentage of competition was calculated using the following equation: (Max−well of compound alone)/(Max−Min)*100%, where Max=(α-synuclein+PBB5) signals−(buffer+PBB5) signals; and Min=(buffer+PBB5) signals−(buffer+PBB5) signals. The IC50 value of each compound was calculated with GraphPad Prism software using the “4 Parameter Logistic Model or Sigmoidal Dose-Response Model”: Y=Bottom+(Top−Bottom)/(1+(IC50/X)^HillSlope)

[3] = target: α-synuclein aggregates (Homo sapiens (Human), UniProt P37840); assay: ReNcell VM α-synuclein aggregation assay; format: cell-based; settings: for DC50: ReNcell VM cells, read-out: Activity (DC50, concentration at which 50% of α-synuclein aggregates has been degraded)
Procedure: The ReNcell VM α-synuclein aggregation assay was conducted at Charles River Laboratories (CRL). ReNcell VM is an immortalized human neural progenitor cell line derived from the ventral mesencephalon region of the brain. ReNcell VM cells were selected as in vitro cellular model for the α-synuclein aggregation assay, based on their growth features, differentiation potential into terminally differentiated neurons and amenability to adenoviral transduction. Aggregated human wild type α-synuclein was overexpressed through adenoviral delivery. Aggregated α-synuclein was detected with the aggregate-selective anti-α-synuclein antibody MJFR14 using immunocytochemistry; total α-synuclein levels were detected with Syn205 (α/β-synuclein-specific antibody).
The ReNcell VM α-synuclein aggregation assay was applied for compound screening to identify compounds capable of degrading α-synuclein aggregates. […] Immunoreactivity toward aggregated (MJFR14) and total α-synuclein (Syn205) was quantified using high content-based segmentation of immunoactive areas in immunocytochemical images (performed with the IN Cell 2200 (GE Healthcare)), followed by quantification of immunofluorescent intensity (performed by CRL's developed algorithm using IN Cell Developer Toolbox software).
Percentage effect (PE): Inhibition in comparison to BLANK (0.1% DMSO).
PE=100−(signal of compound/average signal BLANK)×100
Compound-induced cytotoxicity (% remaining cells)
% remaining cells=(nuclei count of compound/average nuclei count of BLANK)×100

| SMILES | Kd [1] | IC50 [2] | DC50 [3] | inhibition of MJFR14 immunoreactivity ([3]; 24 hour treatment, differentiated ReNcell VM cells) |
| --- | --- | --- | --- | --- |
| CN(C)c1ccc(-c2ccc(-c3nc4ccc(OCCOCCOc5ccc6c(c5)CN(C5CCC(=O)NC5=O)C6=O)cc4s3)cc2)cn1 (stereo not drawn) [Compound 163123] | 0.26 µM | > 10 µM | > 10 µM |  |
| COc1ccc2nc(-c3ccc(-c4ccnc(NCCCCCOc5ccc6c(c5)CN(C5CCC(=O)NC5=O)C6=O)c4)cc3)cn2c1 (stereo not drawn) [Compound 165802] | 2.44 µM | > 10 µM | > 10 µM |  |
| O=C1CCC(N2Cc3cc(OCCCCCNc4cc(-c5ccc(-c6nc7ccc(F)cc7s6)cc5)ccn4)ccc3C2=O)C(=O)N1 (stereo not drawn) [Compound 165825] |  | > 10 µM |  |  |
| O=C1CCC(N2Cc3cc(OCCCC(=O)Nc4ccc(-c5ccc(-c6cc7ccncc7[nH]6)cc5)cn4)ccc3C2=O)C(=O)N1 (stereo not drawn) [Compound 166099] | 5.63 µM | 0.04 µM | > 10 µM |  |
| COc1ccc2nc(-c3ccc(-c4ccnc(NCCOCCOc5ccc6c(c5)CN(C5CCC(=O)NC5=O)C6=O)c4)cc3)oc2c1 (stereo not drawn) [Compound 166123] | 0.48 µM | 0.41 µM |  |  |
| CN(C)c1ccc(-c2ccc(-c3nc4ccc(C(=O)OCCOCCOCCOc5ccc6c(c5)CN(C5CCC(=O)NC5=O)C6=O)cc4s3)cc2)cn1 (stereo not drawn) [Compound 166124] | 0.34 µM | 0.03 µM |  |  |
| CN(C)c1ccc(-c2ccc(-c3nc4c(OCCOCCOc5ccc6c(c5)CN(C5CCC(=O)NC5=O)C6=O)cccc4s3)cc2)cn1 (stereo not drawn) [Compound 166330] | 0.59 µM | 2.6 µM | > 10 µM |  |
| O=C1CCC(N2Cc3cc(OCCOCCNc4cc(-c5ccc(-c6nc7ccc(F)cc7s6)c(C(F)(F)F)c5)ccn4)ccc3C2=O)C(=O)N1 (stereo not drawn) [Compound 166965] | 0.22 µM | 10 µM |  |  |
| CN(C)c1ccc(-c2ccc(-c3cn4cc(OCCCCCOc5ccc6c(c5)CN(C5CCC(=O)NC5=O)C6=O)ccc4n3)cc2)c(F)n1 (stereo not drawn) [Compound 170451] |  |  | > 10 µM |  |
| CN(C)c1ccc(-c2ccc(-c3nc4ccc(NC(=O)CCCOc5ccc6c(c5)CN(C5CCC(=O)NC5=O)C6=O)cc4s3)cc2)cn1 (stereo not drawn) [Compound 170742] |  |  | > 10 µM |  |
| CN(C)c1ccc(-c2ccc(-c3nc4ccc(OCCOCCOCCOc5ccc6c(c5)CN(C5CCC(=O)NC5=O)C6=O)cc4s3)c(C(F)(F)F)c2)cn1 (stereo not drawn) [Compound 174251] |  |  | > 10 µM |  |
| CN(C)c1ccc(-c2ccc(-c3nc4ccc(OC(=O)CCOCCOc5ccc6c(c5)CN(C5CCC(=O)NC5=O)C6=O)cc4s3)cc2)cn1 (stereo not drawn) [Compound 175552] |  |  | > 10 µM |  |
| CN(C)c1ccc2nc(-c3ccc(-c4ccc(NCCOCCOc5ccc6c(c5)CN(C5CCC(=O)NC5=O)C6=O)nc4)cc3C(F)(F)F)sc2c1 (stereo not drawn) [Compound 177031] |  |  | > 10 µM |  |
| O=C1CCC(N2Cc3cc(OCCOCCOc4ccc5nc(-c6ccc(-c7ccc(NC8CC8)nc7)cc6)sc5c4)ccc3C2=O)C(=O)N1 (stereo not drawn) [Compound 177032] | 0.06 µM |  | > 10 µM |  |
| CN(C)c1ccc(-c2ccc(-c3cn4cc(OCCOCCOc5ccc6c(c5)CN(C5CCC(=O)NC5=O)C6=O)ccc4n3)cc2)cn1 (stereo not drawn) [Compound 177033] | 0.65 µM | 0.63 µM | > 10 µM |  |
| CN1C(=O)CCC(N2Cc3cc(OCCOCCOc4ccc5nc(-c6ccc(-c7ccc(N(C)C)nc7)cc6)sc5c4)ccc3C2=O)C1=O (stereo not drawn) [Compound 177036] |  |  | > 10 µM |  |
| COc1ccc2nc(-c3ccc(-c4ccc(NCCOCCOc5ccc6c(c5)CN(C5CCC(=O)NC5=O)C6=O)nc4)cc3)cn2c1 (stereo not drawn) [Compound 177037] |  |  | 0.9 to 10 µM |  |
| COc1ccc2nc(-c3ccc(-c4ccc(NCCOCCOc5cccc6c5C(=O)N(C5CCC(=O)NC5=O)C6=O)nc4)cc3)sc2c1 (stereo not drawn) [Compound 177038] |  |  | > 10 µM |  |
| COc1ccc2nc(-c3ccc(-c4ccc(NCCOCCOc5ccc6c(c5)CN(C5CCC(=O)NC5=O)C6=O)nc4)cc3)sc2c1 (stereo not drawn) [Compound 177039] |  |  | > 10 µM |  |
| COc1ccc2nc(-c3ccc(-c4ccnc(NCCOCCOCC(=O)NC(C(=O)N5C[C@H](O)C[C@H]5C(=O)NCc5ccc(-c6scnc6C)cc5)C(C)(C)C)c4)cc3)cn2c1 (stereo partly drawn) [Compound 177685] |  |  | > 10 µM |  |
| Cc1ncsc1-c1ccc(CNC(=O)[C@@H]2C[C@@H](O)CN2C(=O)[C@@H](NC(=O)COCCOCCOc2ccc3nc(-c4ccc(-c5ccc(N(C)C)nc5)cc4)sc3c2)C(C)(C)C)cc1 [Compound 178884] |  |  | > 10 µM |  |
| Cc1ncsc1-c1ccc(CNC(=O)[C@@H]2C[C@@H](O)CN2C(=O)[C@@H](NC(=O)COCCOCCNc2ccc3nc(-c4ccc(-c5ccc(N(C)C)nc5)cc4C(F)(F)F)sc3c2)C(C)(C)C)cc1 [Compound 180187] |  |  | > 10 µM |  |
| CN(C)c1ccc(-c2ccc(-c3nc4ccc(OCCOCCOc5cccc6c5C(=O)N(C5CCC(=O)NC5=O)C6=O)cc4s3)cc2)cn1 (stereo not drawn) [Compound 180944] | 0.43 µM | 0.61 µM |  |  |
| O=C1CCC(N2Cc3cc(OCCOCCNc4cc(-c5ccc(-c6nc7ccc(F)cc7s6)cc5)ccn4)ccc3C2=O)C(=O)N1 (stereo not drawn) [Compound 180948] |  |  | < 0.01 µM | concentration-dependent inhibition |
| CN(C)c1ccc(-c2ccc(-c3nc4ccc(OCCOCCOc5cccc6c5CN(C5CCC(=O)NC5=O)C6=O)cc4s3)c(C(F)(F)F)c2)cn1 (stereo not drawn) [Compound 180950] |  |  | > 10 µM |  |
| CN(C)c1ccc(-c2ccc(-c3nc4ccc(OCCCOc5ccc6c(c5)CN(C5CCC(=O)NC5=O)C6=O)cc4s3)cc2)cn1 (stereo not drawn) [Compound 184605] |  |  | > 10 µM |  |
| CN(C)c1ccc(-c2ccc(-c3nc4ccc(NCCOCCOc5cccc6c5CN(C5CCC(=O)NC5=O)C6=O)cc4s3)c(C(F)(F)F)c2)cn1 (stereo not drawn) [Compound 185563] |  |  | > 10 µM |  |
| CN(C)c1ccc(-c2ccc(-c3nc4ccc(OCCCCC(=O)Nc5cccc6c5CN(C5CCC(=O)NC5=O)C6=O)cc4s3)cc2)cn1 (stereo not drawn) [Compound 189149] |  |  | > 10 µM |  |
| COc1ccc2nc(-c3ccc(-c4ccnc(NCCOCCOc5cccc6c5CN(C5CCC(=O)NC5=O)C6=O)c4)cc3)cn2c1 (stereo not drawn) [Compound 190753] |  |  | > 10 µM |  |
